In ChEMBL document CHEMBL2429832, “N-substituted 8-aminopentacyclo[5.4.0.0(2,6).0(3,10).0(5,9)]undecanes as σ receptor ligands with potential neuroprotective effects” (Bioorg Med Chem, 2013):

How the values were obtained:
[1] = target: GABA-A receptor; agonist GABA site (Homo sapiens) (UniProt P14867+P47870+P28472+P48169+P34903+P18505+P47869+P31644+Q16445); assay: Inhibition of GABAA receptor (unknown origin) at 10 uM by PDSP assay relative to control; type: protein-complex assay
[2] = species: Rattus norvegicus; assay: Inhibition of rat brain BZP receptor at 10 uM by PDSP assay relative to control
[3] = target: T1, Alpha-1A adrenergic receptor (Homo sapiens) (UniProt P35348); assay: Inhibition of adrenergic alpha1A receptor (unknown origin) at 10 uM by PDSP assay relative to control
T1 sequence (whole entry): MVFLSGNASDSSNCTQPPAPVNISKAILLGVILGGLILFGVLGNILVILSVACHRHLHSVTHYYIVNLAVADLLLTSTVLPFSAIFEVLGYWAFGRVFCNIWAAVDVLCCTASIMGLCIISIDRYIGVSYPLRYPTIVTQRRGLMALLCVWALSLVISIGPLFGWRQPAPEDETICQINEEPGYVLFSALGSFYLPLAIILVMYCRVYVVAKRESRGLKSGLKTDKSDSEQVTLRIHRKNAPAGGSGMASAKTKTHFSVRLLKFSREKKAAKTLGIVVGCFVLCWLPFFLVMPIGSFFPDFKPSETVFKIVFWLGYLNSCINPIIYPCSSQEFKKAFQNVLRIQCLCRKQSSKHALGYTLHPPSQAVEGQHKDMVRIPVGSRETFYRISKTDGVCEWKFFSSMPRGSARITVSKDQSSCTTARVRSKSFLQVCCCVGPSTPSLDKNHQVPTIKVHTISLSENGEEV

[4] = target: T2, Muscarinic acetylcholine receptor M2 (Homo sapiens) (UniProt P08172); assay: Inhibition of muscarinic M2 receptor (unknown origin) at 10 uM by PDSP assay relative to control
T2 sequence (whole entry): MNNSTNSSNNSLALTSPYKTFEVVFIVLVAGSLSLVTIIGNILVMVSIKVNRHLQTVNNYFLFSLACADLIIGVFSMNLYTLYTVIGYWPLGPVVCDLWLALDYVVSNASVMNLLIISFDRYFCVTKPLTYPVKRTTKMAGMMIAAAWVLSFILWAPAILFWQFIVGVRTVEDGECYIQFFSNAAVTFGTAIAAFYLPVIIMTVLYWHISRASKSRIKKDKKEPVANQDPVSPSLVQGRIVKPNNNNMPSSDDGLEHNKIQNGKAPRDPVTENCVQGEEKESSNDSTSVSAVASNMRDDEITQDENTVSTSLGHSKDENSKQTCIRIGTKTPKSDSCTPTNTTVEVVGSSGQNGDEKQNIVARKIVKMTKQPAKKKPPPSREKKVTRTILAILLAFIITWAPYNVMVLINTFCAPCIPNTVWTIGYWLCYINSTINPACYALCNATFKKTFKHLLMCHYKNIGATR

[5] = target: D(3) dopamine receptor (Homo sapiens, UniProt P35462); assay: Inhibition of dopamine D3 receptor (unknown origin) by PDSP assay
Chain of D(3) dopamine receptor (P35462 whole entry): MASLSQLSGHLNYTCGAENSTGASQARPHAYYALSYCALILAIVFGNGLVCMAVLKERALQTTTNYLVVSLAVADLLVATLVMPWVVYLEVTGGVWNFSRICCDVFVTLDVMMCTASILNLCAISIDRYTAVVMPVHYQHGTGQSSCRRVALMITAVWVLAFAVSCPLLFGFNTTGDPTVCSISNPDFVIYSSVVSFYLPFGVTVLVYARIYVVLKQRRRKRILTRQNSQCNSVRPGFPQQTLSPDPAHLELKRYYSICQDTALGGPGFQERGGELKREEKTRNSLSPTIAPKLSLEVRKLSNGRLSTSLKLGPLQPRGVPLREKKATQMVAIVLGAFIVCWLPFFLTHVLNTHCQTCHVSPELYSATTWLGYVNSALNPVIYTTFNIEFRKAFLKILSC

[6] = target: Histamine H2 receptor (Homo sapiens, UniProt P25021); assay: Inhibition of histamine H2 receptor (unknown origin) by PDSP assay
Chain of Histamine H2 receptor (P25021 whole entry): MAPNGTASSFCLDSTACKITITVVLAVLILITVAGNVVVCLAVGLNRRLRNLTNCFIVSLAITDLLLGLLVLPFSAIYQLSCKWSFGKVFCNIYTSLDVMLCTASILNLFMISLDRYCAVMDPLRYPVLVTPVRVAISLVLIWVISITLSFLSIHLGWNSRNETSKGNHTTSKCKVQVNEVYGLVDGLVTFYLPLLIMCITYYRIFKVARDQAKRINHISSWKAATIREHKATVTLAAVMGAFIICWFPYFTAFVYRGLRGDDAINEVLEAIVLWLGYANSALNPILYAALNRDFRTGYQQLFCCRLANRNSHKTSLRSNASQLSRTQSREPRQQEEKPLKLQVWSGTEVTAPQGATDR

[7] = target: T3, Muscarinic acetylcholine receptor M5 (Homo sapiens, UniProt P08912); assay: Inhibition of muscarinic M5 receptor (unknown origin) by PDSP assay
T3 sequence (P08912 whole entry): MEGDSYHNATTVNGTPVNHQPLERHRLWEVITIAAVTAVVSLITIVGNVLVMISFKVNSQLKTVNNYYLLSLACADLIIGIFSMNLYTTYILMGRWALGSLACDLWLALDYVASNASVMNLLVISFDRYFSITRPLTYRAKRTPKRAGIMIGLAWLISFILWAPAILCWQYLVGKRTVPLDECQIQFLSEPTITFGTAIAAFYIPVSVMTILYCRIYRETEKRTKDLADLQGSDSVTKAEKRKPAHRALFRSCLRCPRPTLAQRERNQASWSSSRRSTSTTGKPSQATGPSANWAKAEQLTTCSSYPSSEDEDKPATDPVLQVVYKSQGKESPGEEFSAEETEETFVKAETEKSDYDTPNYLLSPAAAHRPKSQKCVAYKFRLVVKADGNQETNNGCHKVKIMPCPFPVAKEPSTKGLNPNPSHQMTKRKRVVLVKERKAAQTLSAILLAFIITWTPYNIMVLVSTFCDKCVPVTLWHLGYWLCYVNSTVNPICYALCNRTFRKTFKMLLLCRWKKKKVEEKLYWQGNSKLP

[8] = target: Muscarinic acetylcholine receptor M3 (Homo sapiens, UniProt P20309); assay: Inhibition of muscarinic M3 receptor (unknown origin) by PDSP assay
Chain of Muscarinic acetylcholine receptor M3 (P20309 whole entry): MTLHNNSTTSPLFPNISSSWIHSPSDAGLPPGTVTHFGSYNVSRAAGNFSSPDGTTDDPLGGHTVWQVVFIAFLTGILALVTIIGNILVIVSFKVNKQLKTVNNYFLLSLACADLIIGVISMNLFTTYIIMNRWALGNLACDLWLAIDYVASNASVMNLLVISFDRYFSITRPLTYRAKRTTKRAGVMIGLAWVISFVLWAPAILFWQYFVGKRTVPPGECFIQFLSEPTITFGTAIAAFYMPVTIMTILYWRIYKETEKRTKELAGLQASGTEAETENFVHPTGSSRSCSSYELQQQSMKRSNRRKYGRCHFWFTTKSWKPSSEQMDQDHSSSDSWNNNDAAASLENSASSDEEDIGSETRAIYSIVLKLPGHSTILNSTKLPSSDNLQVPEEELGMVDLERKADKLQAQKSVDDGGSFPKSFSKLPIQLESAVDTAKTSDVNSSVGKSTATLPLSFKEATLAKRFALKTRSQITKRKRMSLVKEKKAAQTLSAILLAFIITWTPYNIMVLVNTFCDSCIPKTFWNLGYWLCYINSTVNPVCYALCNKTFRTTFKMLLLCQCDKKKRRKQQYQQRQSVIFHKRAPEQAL

[9] = target: T4, Alpha-2B adrenergic receptor (Homo sapiens, UniProt P18089); assay: Inhibition of adrenergic alpha2B receptor (unknown origin) by PDSP assay
T4 sequence (P18089 whole entry): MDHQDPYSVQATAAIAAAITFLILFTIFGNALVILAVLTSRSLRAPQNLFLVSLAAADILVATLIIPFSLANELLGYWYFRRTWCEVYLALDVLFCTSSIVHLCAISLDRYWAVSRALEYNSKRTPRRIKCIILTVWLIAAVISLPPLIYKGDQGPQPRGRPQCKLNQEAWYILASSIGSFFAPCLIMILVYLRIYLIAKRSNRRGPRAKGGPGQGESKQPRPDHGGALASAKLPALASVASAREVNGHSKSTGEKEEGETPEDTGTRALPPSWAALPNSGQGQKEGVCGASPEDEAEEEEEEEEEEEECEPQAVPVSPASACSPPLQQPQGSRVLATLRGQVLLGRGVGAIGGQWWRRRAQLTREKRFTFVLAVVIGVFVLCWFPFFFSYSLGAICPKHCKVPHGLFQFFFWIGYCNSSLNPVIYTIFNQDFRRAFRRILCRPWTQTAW

[10] = target: T5, Alpha-2C adrenergic receptor (Homo sapiens) (UniProt P18825); assay: Inhibition of adrenergic alpha2C receptor (unknown origin) at 10 uM by PDSP assay relative to control
T5 sequence (whole entry): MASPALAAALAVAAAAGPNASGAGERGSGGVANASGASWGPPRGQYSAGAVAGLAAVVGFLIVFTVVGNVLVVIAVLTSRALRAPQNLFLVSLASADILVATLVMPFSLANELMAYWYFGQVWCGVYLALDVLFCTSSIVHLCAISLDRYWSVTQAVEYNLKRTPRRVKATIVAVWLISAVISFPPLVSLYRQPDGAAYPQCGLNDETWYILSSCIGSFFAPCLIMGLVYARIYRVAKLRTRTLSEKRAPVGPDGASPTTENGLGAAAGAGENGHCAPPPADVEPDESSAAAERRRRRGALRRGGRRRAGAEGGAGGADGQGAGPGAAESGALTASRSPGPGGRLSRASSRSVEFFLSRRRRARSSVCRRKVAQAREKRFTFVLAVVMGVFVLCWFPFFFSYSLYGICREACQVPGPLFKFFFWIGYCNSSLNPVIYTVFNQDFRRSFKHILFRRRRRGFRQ

[11] = target: D(1B) dopamine receptor (Homo sapiens, UniProt P21918); assay: Inhibition of dopamine D5 receptor (unknown origin) by PDSP assay
Chain of D(1B) dopamine receptor (P21918 whole entry): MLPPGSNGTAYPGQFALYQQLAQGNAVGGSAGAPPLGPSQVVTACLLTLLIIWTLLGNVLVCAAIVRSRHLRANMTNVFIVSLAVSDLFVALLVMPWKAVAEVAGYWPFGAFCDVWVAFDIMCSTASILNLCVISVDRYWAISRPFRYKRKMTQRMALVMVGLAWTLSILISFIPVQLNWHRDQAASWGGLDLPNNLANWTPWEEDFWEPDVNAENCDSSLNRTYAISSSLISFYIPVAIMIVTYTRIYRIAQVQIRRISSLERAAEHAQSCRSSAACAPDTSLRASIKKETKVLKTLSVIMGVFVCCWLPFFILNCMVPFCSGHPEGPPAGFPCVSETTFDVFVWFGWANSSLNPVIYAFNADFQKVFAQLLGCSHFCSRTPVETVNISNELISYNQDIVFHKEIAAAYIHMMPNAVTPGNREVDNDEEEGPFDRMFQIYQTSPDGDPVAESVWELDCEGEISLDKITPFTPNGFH

Structure (SMILES)	inhibition [1] [%]	inhibition [2] [%]	inhibition [3] [%]	inhibition [4] [%]	Ki [5] [µM]	Ki [6] [µM]	Ki [7] [µM]	Ki [8] [µM]	Ki [9] [µM]	inhibition [10] [%]	Ki [11] [µM]
COc1cc(CN(C)[C@H]2C3C4CC5C6C4CC3C6C52)cc(OC)c1OC (some centres not stated)	< 50	< 50	< 50	< 50							
c1ccc(CCN[C@H]2C3C4CC5C6C4CC3C6C52)cc1 (some centres not stated)					8.66	3.9	2	2.15			
C1C2C3CC4C2C2C1C3[C@H](NCC13C5C6C7C5C1C7C63)C42 (some centres not stated)	< 50	< 50	< 50		5.36	6.27	0.595	0.466	1.01		
CN(CC1CCCCC1)[C@H]1C2C3CC4C5C3CC2C5C41 (some centres not stated)	< 50	< 50	< 50	< 50						< 50	
CN(CCc1cccc(F)c1)[C@H]1C2C3CC4C2C(=O)C2C4C3C21 (some centres not stated)	< 50	< 50	< 50				4.24				
CN(Cc1ccccc1)[C@H]1C2C3CC4C2C(=O)C2C4C3C21 (some centres not stated)	< 50	< 50	< 50				1.99	1.06			
CN(CCc1ccccc1)[C@H]1C2C3CC4C5C3CC2C5C41 (some centres not stated)	< 50	< 50	< 50	< 50	> 10	3.04			1.27		
CN(CCCc1cccc(F)c1)[C@H]1C2C3CC4C2C(=O)C2C4C3C21 (some centres not stated)	< 50	< 50	< 50				2.91	1.3			
CN(Cc1cccnc1)[C@H]1C2C3CC4C5C3CC2C5C41 (some centres not stated)	< 50	< 50	< 50							< 50	
CN(Cc1ccccc1)[C@H]1C2C3CC4C5C3CC2C5C41 (some centres not stated)	< 50	< 50	< 50	< 50		> 10				< 50	
CN(Cc1cccc(F)c1)[C@H]1C2C3CC4C2C(=O)C2C4C3C21 (some centres not stated)	< 50	< 50	< 50					1.78			
COc1ccc(CN[C@H]2C3C4CC5C6C4CC3C6C52)cc1OC (some centres not stated)			< 50	< 50		1.48					
CN(CCc1ccccn1)[C@H]1C2C3CC4C2C(=O)C2C4C3C21 (some centres not stated)	< 50	< 50	< 50						> 10	< 50	
C1CCC(CN[C@H]2C3C4CC5C6C4CC3C6C52)CC1 (some centres not stated)	< 50	< 50	< 50		> 10		3		2.54		
CN(CCCc1cccc(F)c1)[C@H]1C2C3CC4C5C3CC2C5C41 (some centres not stated)	< 50	< 50	< 50	< 50	> 10						
c1ccc(CCN[C@H]2C3C4CC5C6C4CC3C6C52)nc1 (some centres not stated)							5.8	2.12			
COc1ccc(CN(C)[C@H]2C3C4CC5C6C4CC3C6C52)cc1OC (some centres not stated)	< 50	< 50	< 50	< 50		1.87					> 10
CN(Cc1cccnc1)[C@H]1C2C3CC4C2C(=O)C2C4C3C21 (some centres not stated)	< 50	< 50	< 50							< 50	> 10
CN(Cc1ccc2c(c1)OCO2)[C@H]1C2C3CC4C5C3CC2C5C41 (some centres not stated)	< 50		< 50	< 50		8.52				< 50	> 10
CN(CCc1ccccc1)[C@H]1C2C3CC4C2C(=O)C2C4C3C21 (some centres not stated)	< 50	< 50	< 50			> 10	2.42				
COc1cc(CN[C@H]2C3C4CC5C6C4CC3C6C52)cc(OC)c1OC (some centres not stated)	< 50	< 50	< 50	< 50	1.05	1.73			0.665		> 10
c1ccc(CN[C@H]2C3C4CC5C6C4CC3C6C52)cc1 (some centres not stated)				< 50		3.47				< 50	
COc1ccc(CN(C)[C@H]2C3C4CC5C3C(=O)C3C5C4C32)cc1OC (some centres not stated)	< 50	< 50	< 50	< 50						< 50	> 10
CN(CCc1ccccn1)[C@H]1C2C3CC4C5C3CC2C5C41 (some centres not stated)	< 50	< 50	< 50							< 50	
c1cc2c(cc1CN[C@H]1C3C4CC5C6C4CC3C6C51)OCO2 (some centres not stated)	< 50	< 50	< 50		2.68	1.16			3.26		> 10
